The target of assay [1] is T1, smooth muscle strips of the urinary bladder (Cavia porcellus, UniProt H0W1Z3).
T1 construct: Smooth muscle strips of the urinary bladder and ileum (longitudinal muscle only) were dissected; from tissue; host or cells: guinea pig urinary bladder smooth muscle strips
As to the kind of experiment: Functional in vitro study: antimuscarinic activity (antagonism of carbachol contraction) on urinary bladder strips. The arrangement: species or system guinea pig. The protocol:
(§1) Male guinea pigs, weighing about 300 g, were killed by a blow on the neck and exsanguinated. Smooth muscle strips of the urinary bladder and ileum (longitudinal muscle only) were dissected in a Krebs-Henseleit solution (pH 7.4). The strip preparations were then vertically mounted between two hooks in thermostatically controlled (37° C.) organ baths (5 mL). One of the hooks was adjustable and connected to a force transducer (FT 03, Grass Instruments). The Krebs-Henseleit solution was continuously bubbled with carbogen gas (93.5% O2 /6.5% CO2) to maintain pH at 7.4. Isometric tension was recorded by a Grass Polygraph (model 79D). A resting tension of approximately 5 mN was initially applied on each muscle strip and the preparations were allowed to stabilize for at least 45 min. The resting tension was repeatedly adjusted and the preparations were washed several times during the stabilization period.
The urinary bladder strips were used for evaluation of antimuscarinic activity and the ileal preparations for studies of muscarinic activity. Carbachol (carbamylcholine chloride) was used as the standard agonist. Concentration-response curves to agonists were generated either by the cumulative dose-response technique (bladder strip) or by the addition of single agonist concentrations (ileal preparations). In the latter case, the preparations were washed and allowed to rest between each concentration of agonist. EC50 values were graphically determined.
In studies of antagonism, a control concentration-response curve to carbachol was generated by cumulative addition of carbachol to the bladder strip (i.e., stepwise increase of the agonist concentration until the maximal contractile response was reached), followed by washing out and a resting period of at least 15 min. before a fix concentration of the test compound (antagonist) was added to the organ-bath. After 60 min. of incubation, a second cumulative concentration-response curve to carbachol was generated. Responses were expressed as percent of the maximal response to carbachol. EC50 -values for carbachol in the absence (control) and presence of antagonist were graphically derived and dose ratios (r) were calculated. Dissociation constants, Kb, for the antagonists were then calculated using the following equation (1), where [A] is the concentration of test compound.

For assay [2], the system named is ileum (longitudinal muscle). Description: Functional in vitro study: muscarinic (agonistic) activity on ileal preparations. To be noted: Cavia porcellus, guinea pig ileum, read-out: agonistic effect on ileum in relation to maximal carbachol response (Emax). Here is the method: as §1
The urinary bladder strips were used for evaluation of antimuscarinic activity and the ileal preparations for studies of muscarinic activity. Carbachol (carbamylcholine chloride) was used as the standard agonist. Concentration-response curves to agonists were generated either by the cumulative dose-response technique (bladder strip) or by the addition of single agonist concentrations (ileal preparations). […] EC50 values were graphically determined. […]

Where [3] appears, read: read-out: Kb (dissociation constant for the antagonist).

Molecules are shown by their SMILES. Like-named read-outs stand apart in the source and are kept apart here.

T1 sequence (H0W1Z3 1-590): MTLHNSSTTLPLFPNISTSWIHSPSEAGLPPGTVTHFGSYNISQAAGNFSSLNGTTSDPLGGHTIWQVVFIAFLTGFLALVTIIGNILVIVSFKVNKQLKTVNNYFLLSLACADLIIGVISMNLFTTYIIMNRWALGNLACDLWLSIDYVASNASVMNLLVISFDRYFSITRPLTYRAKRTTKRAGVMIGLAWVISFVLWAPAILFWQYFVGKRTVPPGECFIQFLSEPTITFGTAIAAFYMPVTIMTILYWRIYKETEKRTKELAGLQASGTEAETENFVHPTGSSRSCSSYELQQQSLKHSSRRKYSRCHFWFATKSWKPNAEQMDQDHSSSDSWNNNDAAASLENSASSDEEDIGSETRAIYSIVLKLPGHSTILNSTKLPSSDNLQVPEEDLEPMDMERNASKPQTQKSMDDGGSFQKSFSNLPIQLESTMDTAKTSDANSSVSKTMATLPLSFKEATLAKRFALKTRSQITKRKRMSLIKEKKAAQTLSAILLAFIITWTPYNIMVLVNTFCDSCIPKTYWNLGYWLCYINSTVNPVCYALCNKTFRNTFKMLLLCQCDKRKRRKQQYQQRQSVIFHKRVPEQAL

One may read the Kb as the affinity of an antagonist, worked out from how it opposes an agonist. `Cc1ccc(C2(O)CN3CCC2CC3)o1` (stereo not drawn) [Example 4, 3-(5-Methyl-2-furyl)quinuclidin-3-ol] returned a Kb in assay [1] of 1200 nM.
For the molecule `Cc1ccc(C2(O)CN3CCC2CC3)s1` (stereo not drawn) [Example 6, 3-(5-Methylthienyl)quinuclidin-3-ol], the Kb in assay [1] worked out at 23000 nM.
For `OC1(c2occc2Br)CN2CCC1CC2` (stereo not drawn) [Example 7, 3-(3-Bromo-2-furyl)quinuclidin-3-ol], the Kb in assay [1] (read-out: Kb (dissociation constant for the antagonist), guinea pig urinary bladder strip, antagonism of carbachol, 60 min incubation, Kb=[A]/r-1) turned out to be 11000 nM.
For `CCc1ccc(C2(O)CN3CCC2CC3)o1` (stereo not drawn) [Example 8, 3-(5-Ethyl-2-furyl)quinuclidin-3-ol], the Kb in assay [1] came to 6700 nM.
Turning to `Cc1ccc(C2=CN3CCC2CC3)o1` [Example 17, 3-(5-Methyl-2-furyl)quinuclidin-2-ene], the Kb in assay [1] (setting [3]) is 61 nM.
The term Emax denotes the size of the effect at its maximum, as opposed to the concentration needed. Turning to `Cc1ccc(C2=CN3CCC2CC3)s1` [Example 19, 3-(5-methyl-2-thienyl)quinuclidin-2-ene], in assay [2], the Emax at 500 µM came to 10%. Moreover, in assay [1] (setting [3]), the Kb was found to be 320 nM.
Turning to `CCc1ccc(C2=CN3CCC2CC3)o1` [Example 21, 3-(5-Ethyl-2-furyl)quinuclidin-2-ene], in assay [1] (setting [3]), the Kb was 31 nM.
Take `C1=C(c2occc2-c2ccccc2)C2CCN1CC2` [Example 27, 3-(3-Phenylfuran-2-yl)quinuclidin-2-ene]: in assay [1] (setting [3]), the antagonist equilibrium constant (Kb) turned out to be 2.7 nM.
Regarding `C1=C(c2ccc(-c3ccccc3)o2)C2CCN1CC2` [Example 29, 3-(5-Phenylfuran-2-yl)quinuclidin-2-ene], the Kb in assay [1] (setting [3]) was determined as 1020 nM.
As for `COC(=O)c1ccc(C2=CN3CCC2CC3)o1` [Example 31, 3-(2-Methoxycarbonyl-5-furyl)-quinuclidin-2-ene], in assay [2], the Emax at 500 µM turned out to be 21%. For the same molecule, the Kb in assay [1] (setting [3]) was determined as 2600 nM.

Values taken from patent US5599937A, “Heteroaromatic quinuclidinenes, their use and preparation” (Pharmacia AB, priority 1992, dated 1997).
